This note sets out measurements from paper PMC4429609 (Journal of medicinal chemistry, 2012).

Common to all, as to assay: biochemical
The target in one assay is AKT1 (Homo sapiens, UniProt P31749). The following applies: read-out: % Inhibition at 1 μM, AKT1.
For another assay, the target named is CDK1/cyclin B (Homo sapiens, UniProt P06493). The following applies: read-out: % Inhibition at 1 μM, CDK1/cyclin B.
The next assay deals with CDK2/cyclin A (Homo sapiens, UniProt P24941). The following applies: read-out: % Inhibition at 1 μM, CDK2/cyclin A.
The target of the next assay is CHK1 (Homo sapiens, UniProt O14757). The following applies: read-out: % Inhibition at 1 μM, CHK1.
The next assay concerns the target CHK2 (Homo sapiens, UniProt O96017). The following applies: read-out: % Inhibition at 1 μM, CHK2.
The target in a further assay is NEK11 (Homo sapiens, UniProt Q8NG66). The following applies: read-out: % Inhibition at 1 μM, NEK11.
Sequence of NEK11 (Q8NG66 whole entry, looked up): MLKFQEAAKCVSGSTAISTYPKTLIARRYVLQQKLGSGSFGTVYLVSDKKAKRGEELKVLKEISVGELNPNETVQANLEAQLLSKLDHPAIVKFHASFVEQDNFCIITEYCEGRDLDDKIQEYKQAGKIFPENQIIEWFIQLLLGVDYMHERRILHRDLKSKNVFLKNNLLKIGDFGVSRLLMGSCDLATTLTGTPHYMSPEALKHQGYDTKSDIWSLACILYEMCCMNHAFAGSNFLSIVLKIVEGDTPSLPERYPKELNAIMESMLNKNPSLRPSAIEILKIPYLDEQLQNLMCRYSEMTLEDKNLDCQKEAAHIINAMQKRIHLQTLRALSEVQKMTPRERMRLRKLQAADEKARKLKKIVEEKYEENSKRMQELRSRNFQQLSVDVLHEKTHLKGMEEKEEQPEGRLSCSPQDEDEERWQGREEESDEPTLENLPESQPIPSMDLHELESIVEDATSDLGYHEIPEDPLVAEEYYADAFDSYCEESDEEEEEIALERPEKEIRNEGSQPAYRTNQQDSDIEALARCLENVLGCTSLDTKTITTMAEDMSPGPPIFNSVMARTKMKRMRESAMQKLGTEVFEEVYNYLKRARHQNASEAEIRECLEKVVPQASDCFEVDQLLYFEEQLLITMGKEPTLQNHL
The next assay addresses NEK6 (Homo sapiens, UniProt Q9HC98). The following applies: read-out: % Inhibition at 1 μM, NEK6.
The next assay concerns the target PLK1 (Homo sapiens, UniProt P53350). The following applies: read-out: % Inhibition at 1 μM, PLK1.
Another assay concerns the target RET (Homo sapiens, UniProt P07949). The following applies: read-out: % Inhibition at 1 μM, RET.
For the next assay, the target named is ROCK1 (Homo sapiens, UniProt Q13464). The following applies: read-out: % Inhibition at 1 μM, ROCK1.
The next assay concerns the target TRKA (Homo sapiens, UniProt P04629). The following applies: read-out: % Inhibition at 1 μM, TRKA.
In another assay the target is WEE1 (Homo sapiens, UniProt P30291). The following applies: read-out: % Inhibition at 1 μM, WEE1.
Sequence of WEE1 (P30291 whole entry, looked up): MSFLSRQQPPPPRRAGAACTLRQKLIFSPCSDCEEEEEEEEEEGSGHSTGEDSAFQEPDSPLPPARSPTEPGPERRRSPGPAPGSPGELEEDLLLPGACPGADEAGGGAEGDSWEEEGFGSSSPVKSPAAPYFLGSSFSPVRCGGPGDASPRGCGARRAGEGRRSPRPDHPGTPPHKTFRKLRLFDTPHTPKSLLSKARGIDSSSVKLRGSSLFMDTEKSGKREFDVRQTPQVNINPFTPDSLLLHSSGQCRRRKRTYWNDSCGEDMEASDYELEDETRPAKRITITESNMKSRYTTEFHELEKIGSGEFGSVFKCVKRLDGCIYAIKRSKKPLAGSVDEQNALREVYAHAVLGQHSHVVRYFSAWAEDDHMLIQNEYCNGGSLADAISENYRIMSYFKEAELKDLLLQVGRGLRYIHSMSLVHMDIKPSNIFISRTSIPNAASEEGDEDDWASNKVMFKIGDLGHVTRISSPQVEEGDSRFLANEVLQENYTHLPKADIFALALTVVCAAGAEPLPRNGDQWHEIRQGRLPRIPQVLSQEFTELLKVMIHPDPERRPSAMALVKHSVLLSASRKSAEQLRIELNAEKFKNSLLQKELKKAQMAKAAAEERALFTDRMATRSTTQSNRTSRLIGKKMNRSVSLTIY

Structures are written as SMILES.

Sequence of CDK1/cyclin B (P06493 whole entry, looked up): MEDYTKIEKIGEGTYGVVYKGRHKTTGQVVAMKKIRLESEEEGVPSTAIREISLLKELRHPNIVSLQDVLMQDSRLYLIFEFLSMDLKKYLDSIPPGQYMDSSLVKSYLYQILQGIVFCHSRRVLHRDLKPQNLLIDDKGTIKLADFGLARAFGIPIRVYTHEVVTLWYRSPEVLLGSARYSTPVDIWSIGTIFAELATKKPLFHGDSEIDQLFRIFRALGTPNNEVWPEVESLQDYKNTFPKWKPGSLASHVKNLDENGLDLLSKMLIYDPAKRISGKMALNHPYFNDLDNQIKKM
Sequence of AKT1 (P31749 whole entry): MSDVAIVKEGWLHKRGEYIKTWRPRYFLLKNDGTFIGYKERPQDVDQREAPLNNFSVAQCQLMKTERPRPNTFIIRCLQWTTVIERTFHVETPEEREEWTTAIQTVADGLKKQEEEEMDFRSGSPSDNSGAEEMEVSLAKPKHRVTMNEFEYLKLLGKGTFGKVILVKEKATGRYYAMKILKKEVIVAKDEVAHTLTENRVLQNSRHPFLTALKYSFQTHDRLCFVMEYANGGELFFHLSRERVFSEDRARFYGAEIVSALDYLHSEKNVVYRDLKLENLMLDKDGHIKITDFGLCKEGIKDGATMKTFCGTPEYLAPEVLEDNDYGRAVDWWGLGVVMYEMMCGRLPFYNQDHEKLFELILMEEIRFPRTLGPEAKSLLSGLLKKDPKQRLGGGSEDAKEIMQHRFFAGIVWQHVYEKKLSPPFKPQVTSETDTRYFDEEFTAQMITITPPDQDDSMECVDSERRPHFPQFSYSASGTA
Sequence of RET (P07949 29-1114): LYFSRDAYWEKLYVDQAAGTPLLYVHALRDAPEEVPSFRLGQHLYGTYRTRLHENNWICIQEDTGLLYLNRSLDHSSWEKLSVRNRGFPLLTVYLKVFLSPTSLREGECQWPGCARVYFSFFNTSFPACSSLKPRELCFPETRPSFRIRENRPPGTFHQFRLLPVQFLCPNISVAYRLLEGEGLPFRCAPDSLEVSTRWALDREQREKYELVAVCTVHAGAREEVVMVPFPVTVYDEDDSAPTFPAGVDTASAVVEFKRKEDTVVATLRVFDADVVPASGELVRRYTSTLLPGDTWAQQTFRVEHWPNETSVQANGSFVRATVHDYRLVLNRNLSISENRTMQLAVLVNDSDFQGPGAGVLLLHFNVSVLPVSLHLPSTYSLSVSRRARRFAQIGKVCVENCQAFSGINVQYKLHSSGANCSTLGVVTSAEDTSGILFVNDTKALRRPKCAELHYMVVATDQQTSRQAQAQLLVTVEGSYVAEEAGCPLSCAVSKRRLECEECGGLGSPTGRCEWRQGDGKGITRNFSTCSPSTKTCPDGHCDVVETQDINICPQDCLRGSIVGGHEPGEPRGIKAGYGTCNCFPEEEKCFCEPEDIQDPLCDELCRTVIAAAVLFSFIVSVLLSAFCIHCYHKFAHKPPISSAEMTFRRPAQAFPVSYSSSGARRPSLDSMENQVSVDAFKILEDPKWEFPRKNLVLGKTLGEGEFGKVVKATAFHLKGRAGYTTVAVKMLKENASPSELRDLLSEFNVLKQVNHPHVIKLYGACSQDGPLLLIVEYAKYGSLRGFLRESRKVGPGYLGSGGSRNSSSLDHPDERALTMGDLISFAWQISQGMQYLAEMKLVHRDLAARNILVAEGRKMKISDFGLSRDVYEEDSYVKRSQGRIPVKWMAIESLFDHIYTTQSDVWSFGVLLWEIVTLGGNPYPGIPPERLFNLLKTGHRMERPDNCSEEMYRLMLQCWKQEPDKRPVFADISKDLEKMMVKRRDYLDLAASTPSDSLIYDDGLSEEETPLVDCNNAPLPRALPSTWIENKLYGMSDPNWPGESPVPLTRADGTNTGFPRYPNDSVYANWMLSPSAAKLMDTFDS
Sequence of TRKA (P04629 33-796): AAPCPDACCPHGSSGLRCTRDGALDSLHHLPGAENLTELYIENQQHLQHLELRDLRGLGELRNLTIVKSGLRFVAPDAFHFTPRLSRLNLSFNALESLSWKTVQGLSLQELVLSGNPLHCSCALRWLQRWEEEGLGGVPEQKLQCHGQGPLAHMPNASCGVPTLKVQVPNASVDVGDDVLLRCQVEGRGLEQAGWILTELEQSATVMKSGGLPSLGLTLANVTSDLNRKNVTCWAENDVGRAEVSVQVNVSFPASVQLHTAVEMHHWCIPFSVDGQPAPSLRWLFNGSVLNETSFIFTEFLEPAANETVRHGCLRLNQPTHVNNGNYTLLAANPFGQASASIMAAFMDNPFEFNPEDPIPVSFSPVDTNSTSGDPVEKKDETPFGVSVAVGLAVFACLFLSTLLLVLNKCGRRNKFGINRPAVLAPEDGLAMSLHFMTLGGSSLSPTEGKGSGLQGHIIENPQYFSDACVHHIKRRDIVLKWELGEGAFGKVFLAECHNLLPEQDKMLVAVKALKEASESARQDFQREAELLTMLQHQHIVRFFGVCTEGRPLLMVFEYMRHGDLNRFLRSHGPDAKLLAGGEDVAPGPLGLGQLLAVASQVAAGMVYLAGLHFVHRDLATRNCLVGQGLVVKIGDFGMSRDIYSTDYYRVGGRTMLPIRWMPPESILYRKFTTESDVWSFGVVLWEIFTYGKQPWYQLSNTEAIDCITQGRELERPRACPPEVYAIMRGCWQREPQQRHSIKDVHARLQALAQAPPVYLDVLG
Sequence of PLK1 (P53350 whole entry): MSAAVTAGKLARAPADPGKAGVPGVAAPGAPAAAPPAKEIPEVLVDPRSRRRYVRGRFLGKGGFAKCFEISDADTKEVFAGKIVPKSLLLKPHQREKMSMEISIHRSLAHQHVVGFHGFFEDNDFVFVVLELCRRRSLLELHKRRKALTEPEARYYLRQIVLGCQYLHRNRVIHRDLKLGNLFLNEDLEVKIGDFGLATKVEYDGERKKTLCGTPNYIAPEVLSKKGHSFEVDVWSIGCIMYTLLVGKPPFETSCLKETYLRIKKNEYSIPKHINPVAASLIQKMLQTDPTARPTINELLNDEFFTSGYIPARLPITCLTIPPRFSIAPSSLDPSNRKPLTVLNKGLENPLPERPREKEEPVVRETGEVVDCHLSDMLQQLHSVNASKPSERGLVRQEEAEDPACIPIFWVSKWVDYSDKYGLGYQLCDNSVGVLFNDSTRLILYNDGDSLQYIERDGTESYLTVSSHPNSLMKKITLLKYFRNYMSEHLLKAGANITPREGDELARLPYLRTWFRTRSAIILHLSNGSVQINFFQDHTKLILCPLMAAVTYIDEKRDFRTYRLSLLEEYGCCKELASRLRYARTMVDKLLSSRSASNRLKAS
Sequence of NEK6 (Q9HC98 whole entry, looked up): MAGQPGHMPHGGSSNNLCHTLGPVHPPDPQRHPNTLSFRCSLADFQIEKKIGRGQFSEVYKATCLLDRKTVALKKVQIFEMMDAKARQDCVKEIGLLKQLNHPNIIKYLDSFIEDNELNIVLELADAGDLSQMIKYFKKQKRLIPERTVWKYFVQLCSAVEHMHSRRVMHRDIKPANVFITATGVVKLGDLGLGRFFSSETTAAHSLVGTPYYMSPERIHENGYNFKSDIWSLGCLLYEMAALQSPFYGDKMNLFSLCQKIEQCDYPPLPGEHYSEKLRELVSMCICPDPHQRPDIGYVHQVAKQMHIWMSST

With `Cc1cc(Nc2cc(N3CCN(C)CC3)nc(Sc3ccc(NC(=O)C4CC4)cc3)n2)n[nH]1` [VX-680], the inhibition at 1 µM on AKT1 is 3%; at CDK1/cyclin B it was 5%; at CDK2/cyclin A, 7%; on CHK1, 16%; on CHK2 it was 4%; on NEK11, 11%. The inhibition at 1 µM at NEK6 was -5%; at PLK1, 0%; at RET, 96%; at ROCK1, -2%; on TRKA it was 95%; at WEE1 it was 2%.
